Measured values: publication PMC5218480 (PLoS ONE, 2017)

Test system: MV-4-11 cells
Experiment: Gene expression microarray analysis (Affymetrix PrimeView) and GSEA
Format: cell-based, human
Parameters: RFU PODN (11730768_x_at) / Fold change /veh PODN (11730768_x_at) / RFU LINC00158 (11744669_a_at) / Fold change /veh LINC00158 (11744669_a_at) / RFU DUSP10 (11751237_a_at) / Fold change /veh DUSP10 (11751237_a_at) / RFU ID3 (11757404_x_at) / Fold change /veh ID3 (11757404_x_at) / RFU PLEKHG5 (11737974_s_at) / Fold change /veh PLEKHG5 (11737974_s_at) / RFU LRRC4B (11730491_at) / Fold change /veh LRRC4B (11730491_at) / RFU GIMAP4 (11747438_a_at) / Fold change /veh GIMAP4 (11747438_a_at) / RFU KRT8 (11758183_x_at) / Fold change /veh KRT8 (11758183_x_at) / RFU CNN1 (11734310_a_at) / Fold change /veh CNN1 (11734310_a_at) / RFU VPS37D (11726825_at) / Fold change /veh VPS37D (11726825_at) / RFU C10orf10 (11716522_x_at) / Fold change /veh C10orf10 (11716522_x_at) / RFU KIR2DL2 /// KIR2DL4 /// KIR2DL5A /// KIR2DL5B /// KIR2DS1 /// KIR2DS2 /// KIR2DS3 /// KIR2DS4 /// KIR3DL3 /// KIR3DL3 /// KIR3DS1 (11738374_at) / Fold change /veh KIR2DL2 /// KIR2DL4 /// KIR2DL5A /// KIR2DL5B /// KIR2DS1 /// KIR2DS2 /// KIR2DS3 /// KIR2DS4 /// KIR3DL3 /// KIR3DL3 /// KIR3DS1 (11738374_at) / RFU C1QL1 (11718748_at) / Fold change /veh C1QL1 (11718748_at) / RFU TMPRSS4 (11747572_a_at) / Fold change /veh TMPRSS4 (11747572_a_at) / RFU HAMP (11756126_x_at) / Fold change /veh HAMP (11756126_x_at) / RFU RNFT2 (11725882_a_at) / Fold change /veh RNFT2 (11725882_a_at) / RFU NR4A2 (11747474_a_at) / Fold change /veh NR4A2 (11747474_a_at) / RFU ABCC12 (11746883_a_at) / Fold change /veh ABCC12 (11746883_a_at) / RFU TMEM136 (11760407_x_at) / Fold change /veh TMEM136 (11760407_x_at) / RFU CLDN22 /// WWC2 (11732394_at) / Fold change /veh CLDN22 /// WWC2 (11732394_at) / RFU HLA-DPB1 (11760878_x_at) / Fold change /veh HLA-DPB1 (11760878_x_at) / RFU SPINT1 (11716480_a_at) / Fold change /veh SPINT1 (11716480_a_at) / RFU GAP43 (11754022_s_at) / Fold change /veh GAP43 (11754022_s_at) / RFU A4GNT (11735810_at) / Fold change /veh A4GNT (11735810_at) / RFU PRB3 (11715151_x_at) / Fold change /veh PRB3 (11715151_x_at) / RFU TUBB4B (11761932_at) / Fold change /veh TUBB4B (11761932_at) / RFU CAPN14 (11732068_a_at) / Fold change /veh CAPN14 (11732068_a_at) / RFU TMCC2 (11721928_a_at) / Fold change /veh TMCC2 (11721928_a_at) / RFU IRGQ (11745062_a_at) / Fold change /veh IRGQ (11745062_a_at) / RFU FAM174B (11720279_a_at) / Fold change /veh FAM174B (11720279_a_at) / RFU TMPRSS4 (11748680_a_at) / Fold change /veh TMPRSS4 (11748680_a_at) / RFU FAM212B (11763350_a_at) / Fold change /veh FAM212B (11763350_a_at) / RFU PLEKHG5 (11743358_a_at) / Fold change /veh PLEKHG5 (11743358_a_at) / RFU ZSCAN30 (11745921_a_at) / Fold change /veh ZSCAN30 (11745921_a_at) / RFU CMKLR1 (11741424_a_at) / Fold change /veh CMKLR1 (11741424_a_at) / RFU LOC101060620 /// MAPK8IP1 (11723275_at) / Fold change /veh LOC101060620 /// MAPK8IP1 (11723275_at) / RFU SPTSSB (11747773_x_at) / Fold change /veh SPTSSB (11747773_x_at) / RFU PRSS12 (11739890_at) / Fold change /veh PRSS12 (11739890_at) / RFU BIN1 (11741810_x_at) / Fold change /veh BIN1 (11741810_x_at) / RFU WNT11 (11732464_a_at) / Fold change /veh WNT11 (11732464_a_at) / RFU C10orf10 (11716521_a_at) / Fold change /veh C10orf10 (11716521_a_at) / RFU C5orf56 (11738089_at) / Fold change /veh C5orf56 (11738089_at) / RFU CYB561 (11721691_x_at) / Fold change /veh CYB561 (11721691_x_at) / RFU ANKRD19P (11752326_a_at) / Fold change /veh ANKRD19P (11752326_a_at) / RFU OR2T12 /// OR2T33 /// OR2T8 (11738714_s_at) / Fold change /veh OR2T12 /// OR2T33 /// OR2T8 (11738714_s_at) / RFU VCAN (11748164_a_at) / Fold change /veh VCAN (11748164_a_at) / RFU JSRP1 (11732532_at) / Fold change /veh JSRP1 (11732532_at) / RFU KRTAP10-11 (11738290_x_at) / Fold change /veh KRTAP10-11 (11738290_x_at) / RFU MYO3A (11730013_a_at) / Fold change /veh MYO3A (11730013_a_at) / RFU EBF3 (11725865_a_at) / Fold change /veh EBF3 (11725865_a_at) / RFU CAMK2N1 (11719241_x_at) / Fold change /veh CAMK2N1 (11719241_x_at) / RFU C5orf56 (11738088_a_at) / Fold change /veh C5orf56 (11738088_a_at) / RFU OLFML3 (11715873_a_at) / Fold change /veh OLFML3 (11715873_a_at) / RFU LOC100653217 /// NTM (11731650_a_at) / Fold change /veh LOC100653217 /// NTM (11731650_a_at) / RFU MAPK11 (11762145_a_at) / Fold change /veh MAPK11 (11762145_a_at) / RFU FIZ1 (11724087_x_at) / Fold change /veh FIZ1 (11724087_x_at) / RFU OASL (11726364_x_at) / Fold change /veh OASL (11726364_x_at) / RFU SOX15 (11748057_x_at) / Fold change /veh SOX15 (11748057_x_at) / RFU CD79A (11719716_a_at) / Fold change /veh CD79A (11719716_a_at) / RFU HIST1H1D (11736915_at) / Fold change /veh HIST1H1D (11736915_at) / RFU CASKIN2 (11723855_a_at) / Fold change /veh CASKIN2 (11723855_a_at) / RFU LOC730098 (11760151_x_at) / Fold change /veh LOC730098 (11760151_x_at) / RFU OR4N2 (11742367_at) / Fold change /veh OR4N2 (11742367_at) / RFU PRRT2 (11749266_a_at) / Fold change /veh PRRT2 (11749266_a_at) / RFU SNX32 (11753110_a_at) / Fold change /veh SNX32 (11753110_a_at) / RFU CDHR5 (11726645_a_at) / Fold change /veh CDHR5 (11726645_a_at) / RFU RCAN1 (11760418_a_at) / Fold change /veh RCAN1 (11760418_a_at) / RFU FAM167A (11723789_a_at) / Fold change /veh FAM167A (11723789_a_at) / RFU FAM26E (11764081_at) / Fold change /veh FAM26E (11764081_at) / RFU ISYNA1 (11749810_s_at) / Fold change /veh ISYNA1 (11749810_s_at) / RFU ACY1 (11761880_at) / Fold change /veh ACY1 (11761880_at) / RFU 11764098_at / Fold change /veh 11764098_at / RFU SAMD14 (11745864_x_at) / Fold change /veh SAMD14 (11745864_x_at) / RFU NPB (11741838_a_at) / Fold change /veh NPB (11741838_a_at) / RFU TMPRSS6 (11731388_a_at) / Fold change /veh TMPRSS6 (11731388_a_at) / RFU KRTAP10-2 (11738614_at) / Fold change /veh KRTAP10-2 (11738614_at) / RFU ARHGAP8 /// PRR5-ARHGAP8 (11727945_x_at) / Fold change /veh ARHGAP8 /// PRR5-ARHGAP8 (11727945_x_at) / RFU KRTAP5-7 /// NADSYN1 (11734609_at) / Fold change /veh KRTAP5-7 /// NADSYN1 (11734609_at) / RFU RASL12 (11751679_a_at) / Fold change /veh RASL12 (11751679_a_at) / RFU CDKN2B (11736163_a_at) / Fold change /veh CDKN2B (11736163_a_at) / RFU PRF1 (11729649_at) / Fold change /veh PRF1 (11729649_at) / RFU, ZNF638 /// ZNF638-IT1 / Fold change vs veh, ZNF638 /// ZNF638-IT1 / RFU, PANK3 / Fold change vs veh, PANK3 / RFU, SH3YL1 / Fold change vs veh, SH3YL1 / RFU, ZEB2 / Fold change vs veh, ZEB2 / RFU, NRIP1 / Fold change vs veh, NRIP1 / RFU, PTTG1IP / Fold change vs veh, PTTG1IP / RFU, CAPN2 / Fold change vs veh, CAPN2 / RFU, MED14 / Fold change vs veh, MED14 / RFU, SNORA58 / Fold change vs veh, SNORA58 / RFU, C1orf63 / Fold change vs veh, C1orf63 / RFU, LRRFIP1 / Fold change vs veh, LRRFIP1 / RFU, NDUFAF7 / Fold change vs veh, NDUFAF7 / RFU, SLC12A2 / Fold change vs veh, SLC12A2 / RFU, IBTK / Fold change vs veh, IBTK / RFU, ESF1 / Fold change vs veh, ESF1 / Fold change vs veh, TMEM50B / RFU, TAOK1 / Fold change vs veh, TAOK1 / RFU, ACBD3 / Fold change vs veh, ACBD3 / RFU, TMA16 / Fold change vs veh, TMA16 / RFU, RWDD3 / Fold change vs veh, RWDD3 / RFU, BCAT1 / Fold change vs veh, BCAT1 / RFU, EDEM3 / Fold change vs veh, EDEM3 / RFU, TMEM33 / Fold change vs veh, TMEM33 / RFU, WDR75 / Fold change vs veh, WDR75 / RFU, AHCTF1 / Fold change vs veh, AHCTF1 / RFU, TFRC / Fold change vs veh, TFRC / RFU, ZDHHC17 / Fold change vs veh, ZDHHC17 / RFU, NOM1 / Fold change vs veh, NOM1 / RFU, ARL8B / Fold change vs veh, ARL8B / RFU, ZBTB11 / Fold change vs veh, ZBTB11 / RFU, TAMM41 / Fold change vs veh, TAMM41 / RFU, KIAA1704 /// LOC100996395 / Fold change vs veh, KIAA1704 /// LOC100996395 / RFU, ING1 / Fold change vs veh, ING1 / RFU, TRMT61B / Fold change vs veh, TRMT61B / RFU, FUBP3 / Fold change vs veh, FUBP3 / RFU, TP53 / Fold change vs veh, TP53 / RFU, TNKS2 / Fold change vs veh, TNKS2 / RFU, ZFP14 / Fold change vs veh, ZFP14 / RFU, ACTR2 / Fold change vs veh, ACTR2 / RFU, PPP3R1 / Fold change vs veh, PPP3R1 / RFU, PIK3R1 / Fold change vs veh, PIK3R1 / RFU, HNRNPA1 / Fold change vs veh, HNRNPA1 / RFU, RNF170 / Fold change vs veh, RNF170 / RFU, ZNF28 / Fold change vs veh, ZNF28 / RFU, RNGTT / Fold change vs veh, RNGTT / RFU, OGT / Fold change vs veh, OGT / RFU, BRD1 / Fold change vs veh, BRD1 / RFU, MARS / Fold change vs veh, MARS / RFU, ZNF655 / Fold change vs veh, ZNF655 / RFU, FAHD1 / Fold change vs veh, FAHD1 / RFU, BDP1 / Fold change vs veh, BDP1 / RFU, LRRCC1 / Fold change vs veh, LRRCC1 / RFU, ARID1A / Fold change vs veh, ARID1A / RFU, ZNF146 / Fold change vs veh, ZNF146 / RFU, ZNF330 / Fold change vs veh, ZNF330 / RFU, GPN3 / Fold change vs veh, GPN3 / RFU, C9orf123 / Fold change vs veh, C9orf123 / RFU, N4BP2L2 / Fold change vs veh, N4BP2L2 / RFU, ARFIP1 / Fold change vs veh, ARFIP1 / RFU, FAM179B / Fold change vs veh, FAM179B / RFU, BCL10 / Fold change vs veh, BCL10 / RFU, UHRF1BP1L / Fold change vs veh, UHRF1BP1L / RFU, BET1 / Fold change vs veh, BET1 / RFU, CNOT2 / Fold change vs veh, CNOT2 / RFU, ZNF268 / Fold change vs veh, ZNF268 / Fold change vs veh, ZNF507 / RFU, DGCR2 / Fold change vs veh, DGCR2 / RFU, WDSUB1 / Fold change vs veh, WDSUB1 / Fold change vs veh, HSP90B1 /// MIR3652 / RFU, ADSS / Fold change vs veh, ADSS / RFU, GK / Fold change vs veh, GK / RFU, ZNF148 / Fold change vs veh, ZNF148 / RFU, TAF9 / Fold change vs veh, TAF9 / RFU, SLC1A5 / Fold change vs veh, SLC1A5 / RFU, SLMO2 / Fold change vs veh, SLMO2 / RFU, ABCC4 / Fold change vs veh, ABCC4 / RFU, LOC101060439 /// RAP1B / Fold change vs veh, LOC101060439 /// RAP1B / RFU, RFX7 / Fold change vs veh, RFX7 / RFU, GTPBP10 / Fold change vs veh, GTPBP10 / RFU, CNEP1R1 / Fold change vs veh, CNEP1R1 / RFU, BIVM-ERCC5 /// ERCC5 / Fold change vs veh, BIVM-ERCC5 /// ERCC5 / RFU, ILF3 / Fold change vs veh, ILF3 / RFU 11762660_at / Fold change /veh 11762660_at / RFU VCAN (11757783_s_at) / Fold change /veh VCAN (11757783_s_at) / RFU DDX43 (11728927_at) / Fold change /veh DDX43 (11728927_at) / RFU KRT8 (11758188_x_at) / Fold change /veh KRT8 (11758188_x_at) / RFU NKD1 (11759106_at) / Fold change /veh NKD1 (11759106_at) / RFU SRD5A1 (11742802_a_at) / Fold change /veh SRD5A1 (11742802_a_at) / RFU TPSAB1 /// TPSB2 (11721975_s_at) / Fold change /veh TPSAB1 /// TPSB2 (11721975_s_at) / RFU GSTM3 (11746129_a_at) / Fold change /veh GSTM3 (11746129_a_at) / RFU IL23R (11737362_x_at) / Fold change /veh IL23R (11737362_x_at) / RFU TMEM51 (11727254_a_at) / Fold change /veh TMEM51 (11727254_a_at) / RFU PIWIL2 (11732686_x_at) / Fold change /veh PIWIL2 (11732686_x_at) / RFU ORM1 (11744905_x_at) / Fold change /veh ORM1 (11744905_x_at) / RFU CCDC152 (11743942_at) / Fold change /veh CCDC152 (11743942_at) / RFU ECM1 (11717891_a_at) / Fold change /veh ECM1 (11717891_a_at) / RFU IL23R (11748794_a_at) / Fold change /veh IL23R (11748794_a_at) / RFU TNFAIP8L3 (11732012_x_at) / Fold change /veh TNFAIP8L3 (11732012_x_at) / RFU MBOAT4 (11741988_at) / Fold change /veh MBOAT4 (11741988_at) / RFU 11764193_at / Fold change /veh 11764193_at / RFU TMEM53 (11763286_at) / Fold change /veh TMEM53 (11763286_at) / RFU MAGEB2 (11727129_at) / Fold change /veh MAGEB2 (11727129_at) / RFU TMEM200A (11744735_a_at) / Fold change /veh TMEM200A (11744735_a_at) / RFU CCDC152 (11751479_a_at) / Fold change /veh CCDC152 (11751479_a_at) / RFU FAM211A (11726209_a_at) / Fold change /veh FAM211A (11726209_a_at) / RFU RGS16 (11746705_a_at) / Fold change /veh RGS16 (11746705_a_at) / RFU VCAN (11755009_s_at) / Fold change /veh VCAN (11755009_s_at) / RFU RHOB (11743442_s_at) / Fold change /veh RHOB (11743442_s_at) / RFU RGS16 (11720943_a_at) / Fold change /veh RGS16 (11720943_a_at) / RFU RGS16 (11720944_at) / Fold change /veh RGS16 (11720944_at) / RFU, VPS4B / Fold change vs veh, VPS4B / RFU, CREB1 / Fold change vs veh, CREB1 / RFU, DNAJC13 / Fold change vs veh, DNAJC13 / RFU, GNAQ / Fold change vs veh, GNAQ / RFU, CDK5R1 / Fold change vs veh, CDK5R1 / RFU, ZRANB3 / Fold change vs veh, ZRANB3 / RFU, CUL4A / Fold change vs veh, CUL4A / RFU, CCNY / Fold change vs veh, CCNY / RFU, UFL1 / Fold change vs veh, UFL1 / RFU, COG3 / Fold change vs veh, COG3 / RFU, DIAPH2 / Fold change vs veh, DIAPH2 / RFU, SKA2 / Fold change vs veh, SKA2 / RFU, AFF3 / Fold change vs veh, AFF3 / RFU, LMF1 / Fold change vs veh, LMF1 / RFU, IPO11 / Fold change vs veh, IPO11 / RFU, DFFB / Fold change vs veh, DFFB / RFU, FOXP1 / Fold change vs veh, FOXP1 / RFU, CARD8 / Fold change vs veh, CARD8 / RFU, STRN3 / Fold change vs veh, STRN3 / RFU, ADK / Fold change vs veh, ADK / RFU, RASSF2 / Fold change vs veh, RASSF2 / RFU, WIPF1 / Fold change vs veh, WIPF1 / RFU, LARP1B / Fold change vs veh, LARP1B / RFU, RASA1 / Fold change vs veh, RASA1 / RFU, RB1 / Fold change vs veh, RB1 / RFU, PPFIA1 / Fold change vs veh, PPFIA1 / RFU, MAT2A / Fold change vs veh, MAT2A / RFU, CCT5 / Fold change vs veh, CCT5 / RFU, WDR92 / Fold change vs veh, WDR92 / RFU, CUX1 / Fold change vs veh, CUX1 / RFU, TTC7A / Fold change vs veh, TTC7A / RFU, TMEM135 / Fold change vs veh, TMEM135 / RFU, DEPTOR / Fold change vs veh, DEPTOR / RFU, CPM / Fold change vs veh, CPM / RFU, DNAJB6 / Fold change vs veh, DNAJB6 / RFU, CACNA2D3 / Fold change vs veh, CACNA2D3 / RFU, DTX4 / Fold change vs veh, DTX4 / RFU, TFCP2 / Fold change vs veh, TFCP2 / RFU, GMCL1 /// GMCL1P1 / Fold change vs veh, GMCL1 /// GMCL1P1 / RFU, AEBP2 / Fold change vs veh, AEBP2 / RFU, SNHG1 /// SNORD22 /// SNORD25 /// SNORD26 /// SNORD27 /// SNORD28 /// SNORD29 /// SNORD31 / Fold change vs veh, SNHG1 /// SNORD22 /// SNORD25 /// SNORD26 /// SNORD27 /// SNORD28 /// SNORD29 /// SNORD31 / Fold change (Aza/veh), C12orf56 (ProbeSet 11735607_a_at) / Fold change (ACY-1035/veh), C12orf56 (ProbeSet 11735607_a_at) / Fold change (Aza/veh), FGFR1OP (ProbeSet 11751329_s_at) / Fold change (ACY-1035/veh), FGFR1OP (ProbeSet 11751329_s_at) / Fold change (Aza/veh), VPS36 (ProbeSet 11739960_a_at) / Fold change (ACY-1035/veh), VPS36 (ProbeSet 11739960_a_at) / RFU SYPL1 (11715823_x_at) / Fold change /veh SYPL1 (11715823_x_at) / RFU IGFBP7 (11715501_s_at) / Fold change /veh IGFBP7 (11715501_s_at) / RFU REEP3 (11722064_at) / Fold change /veh REEP3 (11722064_at) / RFU IGLL1 (11728026_x_at) / Fold change /veh IGLL1 (11728026_x_at): dose or concentration left out as unconfirmed
Settings: ProbeSet 11755159_a_at; LIST D

Structure (SMILES): Nc1ncn([C@@H]2O[C@H](CO)[C@@H](O)[C@H]2O)c(=O)n1 [azacitidine]
- Fold change vs veh, COG3: 0.82
